US7196192B2, “28-epirapalogs” (Ariad Gene Therapeutics, Inc., priority 1999, dated 2007)
Read-outs that look alike come from different tables or passages of the source.

Experiments:
[1] = biological target: FKBP (Homo sapiens, UniProt P62942); test: FKBP competitive binding assay based on fluorescence polarization (FP); settings: competitive FP binding
Experimental: A Competitive Binding FP Assay is described in detail in WO99/36553 and WO96/41865. That assay permits the in vitro measurement of an IC50 value for a given compound which reflects its ability to bind to an FKBP-protein in competition with a labeled FKBP ligand, such as, for example, FK506.
(§1) A diverse group of C7-modified 28-epirapalogs were prepared as described in Example 4.

[2] = biological target: T1, transcriptional switch components containing FKBP and 2098L mutant FRB domains (Homo sapiens, UniProt P42345+P62942); test: transcription assay in engineered HD1080 cells expressing SEAP (txn 2098L); assay type: cell-based; settings: for TXN 2098L peak relative to rapamycin peak: superscript mark on EC50 cell
T1 construct: transcriptional switchcomponents containing FKBP and 2098L mutant FRB domains, respectively; fused on or other part: The two switch components are separate chimeric proteins; Neither is given for this cell line
Source text: The ability of the rapalogs to multimerize chimeric proteins may be measured in cell-based assays by measuring the occurrence of an event triggered by such multimerization. For instance, one may use cells containing and capable of expressing DNA encoding a first chimeric protein comprising one or more FKBP-domains and one or more effector domains as well as DNA encoding a second chimeric protein containing an FRB domain and one or more effector domains capable, upon multimerization, of actuating a biological response. We prefer to use cells which further contain a reporter gene under the transcriptional control of a regulatory element (i.e., promoter) which is responsive to the multimerization of the chimeric proteins. The design and preparation of illustrative components and their use in so engineered cells is described in WO99/36553 and WO96/41865 and the other international patent applications referred to in this and the foregoing section. (See also W099/10510 for additional guidance on the design, assembly and delivery of nucleic acids to render cells and animals responsive to rapalogs of interest and for additional guidance on applications of such systems.) The cells are grown or maintained in culture. A rapalog is added to the culture medium and after a suitable incubation period (to permit gene expression and secretion, e.g. several hours or overnight) the presence of the reporter gene product is measured. Positive results, i.e., multimerization, correlates with transcription of the reporter gene as observed by the appearance of the reporter gene product. The reporter gene product may be a conveniently detectable protein (e.g. by ELISA) or may catalyze the production of a conveniently detectable product (e.g. colored). Materials and methods for producing appropriate cell lines for conducting such assays are disclosed in the international patent applications cited above in this section.
2. EC50 values of the various compounds was measured in a transcription assay using genetically engineered HD1080 cells which constitutively express transcriptional switch components containing FKBP and 2098L mutant FRB domains, respectively and which regulatably express secreted alkaline phosphatase (SEAP) in the presence of a compound which multimerizes the switch components. The assay is a literature assay. See WO 99/36553, e.g. Example 12, pages 120–121 (& FIG. 2D) […]

[3] = test system: murine splenocyte; test: murine splenocyte assay for immunosuppressive activity; assay type: cell-based; settings: read-out: Splenocyte IC50
Experimental: 3. Conventional murine splenocyte assay for immunosuppressive activity.
as §1

[4] = fluorescein-labelled FK506 probe (AP1491), read-out: FKBP binding IC50
[5] = HD1080 cells, FKBP and 2098L mutant FRB switch, SEAP reporter, read-out: txn 2098L EC50
[6] = Mus musculus, Splenocyte, murine splenocyte assay, immunosuppressive activity
[7] = FKBP IC50 (nM), methods of Example 2.5
[8] = read-out: TXN 2098L EC50, cellular transcription assay, methods of Example 2.5
[9] = Mus musculus, Splenocyte, mouse splenocyte assay, methods of Example 2.5
[10] = methods of Example 2.5, read-out: FKBP IC50
[11] = cellular transcription assay, methods of Example 2.5, read-out: TXN 2098L EC50
[12] = mouse splenocyte assay, methods of Example 2.5

T1 sequence (P62942 2-108 limits assumed, stated change not applied, other chains not shown): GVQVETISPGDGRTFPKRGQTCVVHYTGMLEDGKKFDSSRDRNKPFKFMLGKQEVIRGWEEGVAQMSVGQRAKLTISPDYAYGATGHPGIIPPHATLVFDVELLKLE
FKBP, sequence (P62942 whole entry): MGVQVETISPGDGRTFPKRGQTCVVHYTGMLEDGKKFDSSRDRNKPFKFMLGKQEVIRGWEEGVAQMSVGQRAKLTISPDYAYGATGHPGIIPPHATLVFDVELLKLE

Compound	IC50 [3, 9] [nM]	IC50 [1, 10] [nM]	EC50 [2, 11] [nM]	IC50 [3, 12] [nM]	other results
CO[C@H]1C[C@@H]2CC[C@@H](C)[C@@](O)(O2)C(=O)C(=O)N2CCCC[C@H]2C(=O)O[C@H]([C@H](C)C[C@@H]2CC[C@@H](OCc3ccccc3)[C@H](OC)C2)CC(=O)[C@H](C)/C=C(\C)[C@H](O)[C@@H](OC)C(=O)[C@H](C)C[C@H](C)/C=C/C=C/C=C/1C [43-O-benzyl-28-epirapamycin]					IC50 [1, 4]: 63 nM; EC50 [2, 5]: 12 nM; IC50 [3, 6]: ~1200 nM
C=CCO[C@@H]1C[C@@H]2CC[C@@H](C)[C@@](O)(O2)C(=O)C(=O)N2CCCC[C@H]2C(=O)O[C@H]([C@H](C)C[C@@H]2CC[C@@H](O)[C@H](OC)C2)CC(=O)[C@H](C)/C=C(\C)[C@H](O)[C@@H](OC)C(=O)[C@H](C)C[C@H](C)/C=C/C=C/C=C/1C [28-epi-7R-allyloxy]	3400				IC50 [1, 7]: 11 nM; EC50 [2, 8]: 25 nM
COc1ccc(C2CC3CCC(C)C(O)(O3)C(=O)C(=O)N3CCCCC3C(=O)OC(C(C)CC3CCC(O)C(OC)C3)CC(=O)C(C)C=C(C)C(O)C(OC)C(=O)C(C)CC(C)C=CC=CC=C2C)c(OC)c1 (stereo not drawn) [28-epi-7R-dimethoxyphenyl]		54	26	22 to 28	
CO[C@H]1C[C@@H]2CC[C@@H](C)[C@@](O)(O2)C(=O)C(=O)N2CCCC[C@H]2C(=O)O[C@H]([C@H](C)C[C@@H]2CC[C@@H](OC)[C@H](OC)C2)CC(=O)[C@H](C)/C=C(\C)[C@H](O)[C@@H](OC)C(=O)[C@H](C)C[C@H](C)/C=C/C=C/C=C/1C [43-O-methyl-28-epirapamycin]					IC50 [1, 4]: 34 nM; EC50 [2, 5]: 3 nM; IC50 [3, 6]: 20 to 31 nM
CO[C@@H]1C[C@H](C[C@@H](C)[C@@H]2CC(=O)[C@H](C)/C=C(\C)[C@H](O)[C@@H](OC)C(=O)[C@H](C)C[C@H](C)/C=C/C=C/C=C(\C)[C@H](N(C)C(=O)Oc3ccc(C)cc3)C[C@@H]3CC[C@@H](C)[C@@](O)(O3)C(=O)C(=O)N3CCCC[C@H]3C(=O)O2)CC[C@H]1O [28-epi-7R-N-Me-p-tolylcarbamate]		119	70	393	
CO[C@@H]1C[C@H](C[C@@H](C)[C@@H]2CC(=O)[C@H](C)/C=C(\C)[C@H](O)[C@@H](OC)C(=O)[C@H](C)C[C@H](C)/C=C/C=C/C=C(\C)[C@@H](NC(=O)OCc3ccccc3)C[C@@H]3CC[C@@H](C)[C@@](O)(O3)C(=O)C(=O)N3CCCC[C@H]3C(=O)O2)CC[C@H]1O [28-epi-7S-benzylcarbamate]	3450	40	15		
CO[C@@H]1C[C@H](C[C@@H](C)[C@@H]2CC(=O)[C@H](C)/C=C(\C)[C@H](O)[C@@H](OC)C(=O)[C@H](C)C[C@H](C)/C=C/C=C/C=C(\C)[C@H](N(C)S(C)(=O)=O)C[C@@H]3CC[C@@H](C)[C@@](O)(O3)C(=O)C(=O)N3CCCC[C@H]3C(=O)O2)CC[C@H]1O [28-epi-7R-N-Me-methanesulfonamide]	166	37	8		
COC1CC(CC(C)C2CC(=O)C(C)C=C(C)C(O)C(OC)C(=O)C(C)CC(C)C=CC=CC=C(C)C(c3ccc(C)s3)CC3CCC(C)C(O)(O3)C(=O)C(=O)N3CCCCC3C(=O)O2)CCC1O (stereo not drawn) [28-epi-7R-methylthiophene]		120	22	394 to 424	
C=CCO[C@@H]1CC[C@@H](C[C@@H](C)[C@@H]2CC(=O)[C@H](C)/C=C(\C)[C@H](O)[C@@H](OC)C(=O)[C@H](C)C[C@H](C)/C=C/C=C/C=C(\C)[C@@H](OC)C[C@@H]3CC[C@@H](C)[C@@](O)(O3)C(=O)C(=O)N3CCCC[C@H]3C(=O)O2)C[C@H]1OC [43-O-allyl-28-epirapamycin]					IC50 [1, 4]: 65 nM; EC50 [2, 5]: 8 nM; IC50 [3, 6]: 641 to 684 nM
CCCCS(=O)(=O)N[C@@H]1C[C@@H]2CC[C@@H](C)[C@@](O)(O2)C(=O)C(=O)N2CCCC[C@H]2C(=O)O[C@H]([C@H](C)C[C@@H]2CC[C@@H](O)[C@H](OC)C2)CC(=O)[C@H](C)/C=C(\C)[C@H](O)[C@@H](OC)C(=O)[C@H](C)C[C@H](C)/C=C/C=C/C=C/1C [28-epi-7R-butanesulfonamide]	0.16	11	20		
COC1CC(CC(C)C2CC(=O)C(C)C=C(C)C(O)C(OC)C(=O)C(C)CC(C)C=CC=CC=C(C)C(N(C)C(=O)OCC(C)C)CC3CCC(C)C(O)(O3)C(=O)C(=O)N3CCCCC3C(=O)O2)CCC1O (single isomer, unassigned) [28-epi-7S-N-Me-isobutylcarbamate]		19	40	1380	
COC1CC(CC(C)C2CC(=O)C(C)C=C(C)C(O)C(OC)C(=O)C(C)CC(C)C=CC=CC=C(C)C(N(C)C(=O)OCC(C)C)CC3CCC(C)C(O)(O3)C(=O)C(=O)N3CCCCC3C(=O)O2)CCC1O (single isomer, unassigned) [28-epi-7R-N-Me-isobutylcarbamate]		109	15	587	
CO[C@@H]1C[C@H](C[C@@H](C)[C@@H]2CC(=O)[C@H](C)/C=C(\C)[C@H](O)[C@@H](OC)C(=O)[C@H](C)C[C@H](C)/C=C/C=C/C=C(\C)[C@H](N(C)S(=O)(=O)c3ccc(C)cc3)C[C@@H]3CC[C@@H](C)[C@@](O)(O3)C(=O)C(=O)N3CCCC[C@H]3C(=O)O2)CC[C@H]1O [28-epi-7R-N-Me-p-toluenesulfonamide]	12				IC50 [1, 7]: 34 nM; EC50 [2, 8]: 8 nM
CO[C@@H]1C[C@H](C[C@@H](C)[C@@H]2CC(=O)[C@H](C)/C=C(\C)[C@H](O)[C@@H](OC)C(=O)[C@H](C)C[C@H](C)/C=C/C=C/C=C(\C)[C@@H](N(C)C(=O)Oc3ccc(C)cc3)C[C@@H]3CC[C@@H](C)[C@@](O)(O3)C(=O)C(=O)N3CCCC[C@H]3C(=O)O2)CC[C@H]1O [28-epi-7S-N-Me-p-tolylcarbamate]		54	25	50	
COc1ccc([C@H]2C[C@@H]3CC[C@@H](C)[C@@](O)(O3)C(=O)C(=O)N3CCCC[C@H]3C(=O)O[C@H]([C@H](C)C[C@@H]3CC[C@@H](O)[C@H](OC)C3)CC(=O)[C@H](C)/C=C(\C)[C@H](O)[C@@H](OC)C(=O)[C@H](C)C[C@H](C)/C=C/C=C/C=C/2C)c(OC)c1 [28-epi-7S-dimethoxyphenyl]	598 to 1060	31	50		
CO[C@@H]1C[C@H](C[C@@H](C)[C@@H]2CC(=O)[C@H](C)/C=C(\C)[C@H](O)[C@@H](OC)C(=O)[C@H](C)C[C@H](C)/C=C/C=C/C=C(\C)[C@H](N(C)C(=O)OCc3ccccc3)C[C@@H]3CC[C@@H](C)[C@@](O)(O3)C(=O)C(=O)N3CCCC[C@H]3C(=O)O2)CC[C@H]1O [28-epi-7R-N-Me-benzylcarbamate]	1150	163	8		TXN 2098L peak relative to rapamycin peak [2]: (−) (peak was <80% rapamycin peak)
28-epi-7R-(3′-methyl)-but-4′-enyloxy		13	35	3160	
CO[C@@H]1C[C@H](C[C@@H](C)[C@@H]2CC(=O)[C@H](C)/C=C(\C)[C@H](O)[C@@H](OC)C(=O)[C@H](C)C[C@H](C)/C=C/C=C/C=C(\C)[C@@H](NS(=O)(=O)N(C)c3ccccc3)C[C@@H]3CC[C@@H](C)[C@@](O)(O3)C(=O)C(=O)N3CCCC[C@H]3C(=O)O2)CC[C@H]1O [28-epi-7S-methylphenylsulfamide]		11	28	564	
CO[C@@H]1C[C@H](C[C@@H](C)[C@@H]2CC(=O)[C@H](C)/C=C(\C)[C@H](O)[C@@H](OC)C(=O)[C@H](C)C[C@H](C)/C=C/C=C/C=C(\C)[C@@H](Oc3ccccc3)C[C@@H]3CC[C@@H](C)[C@@](O)(O3)C(=O)C(=O)N3CCCC[C@H]3C(=O)O2)CC[C@H]1O [28-epi-7S-phenyloxy]	478 to 2500	36	8		TXN 2098L peak relative to rapamycin peak [2]: (−) (peak was <80% rapamycin peak)
